PubChem BioAssay (NCI)
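How tested: cells in 96-well plates exposed to compound for 48 hours at five concentrations. GI50 marks 50% less growth. TGI: total growth inhibition.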

What was measured:
Experiment in all cases: NCI anticancer screen, dose series, 48 h
[1] = tested on: TK-10 renal
[2] = tested on: SW-620 colon
[3] = tested on: MDA-MB-231 breast
[4] = tested on: BT-549 breast
[5] = tested on: MCF7 breast
[6] = tested on: SF-268 CNS
[7] = tested on: HCT-15 colon
[8] = tested on: HT29 colon
[9] = tested on: HL-60(TB) leukemia
[10] = tested on: OVCAR-4 ovarian
[11] = tested on: HCT-116 colon
[12] = tested on: PC-3 prostate
[13] = tested on: UACC-62 melanoma
[14] = tested on: NCI-H522 lung
[15] = tested on: 786-0 renal
[16] = tested on: M14 melanoma
[17] = tested on: UO-31 renal
[18] = tested on: SNB-75 CNS
[19] = tested on: HCC-2998 colon
[20] = tested on: SNB-19 CNS
[21] = tested on: HOP-92 NSCLC
[22] = tested on: IGROV1 ovarian
[23] = tested on: LOX IMVI melanoma
[24] = tested on: SF-295 CNS
[25] = tested on: SN12C renal
[26] = tested on: RPMI-8226 leukemia
[27] = tested on: SR leukemia
[28] = tested on: OVCAR-3 ovarian
[29] = tested on: NCI-H226 lung
[30] = tested on: ACHN renal
[31] = tested on: NCI/ADR-RES ovarian
[32] = tested on: UACC-257 melanoma
[33] = tested on: SF-539 CNS
[34] = tested on: NCI-H23 lung
[35] = tested on: CCRF-CEM leukemia
[36] = tested on: KM12 colon
[37] = tested on: K-562 leukemia
[38] = tested on: OVCAR-8 ovarian
[39] = tested on: A549 NSCLC
[40] = tested on: MOLT-4 leukemia
[41] = tested on: DU-145 prostate
[42] = tested on: RXF 393 renal
[43] = tested on: NCI-H460 lung
[44] = tested on: SK-OV-3 ovarian
[45] = tested on: A498 renal
[46] = tested on: U251 CNS
[47] = tested on: SK-MEL-2 melanoma
[48] = tested on: OVCAR-5 ovarian
[49] = tested on: MALME-3M melanoma
[50] = tested on: COLO 205 colon
[51] = tested on: SK-MEL-5 melanoma
[52] = tested on: T-47D breast
[53] = tested on: CAKI-1 renal
[54] = tested on: MDA-MB-435
[55] = tested on: HOP-62 NSCLC
[56] = tested on: SK-MEL-28 melanoma
[57] = tested on: HS 578T breast
[58] = tested on: EKVX NSCLC

CC(=O)Oc1ccccc1C(=O)Nc1cc(C(C)C)ccc1C
GI50 [1]: 2.96 µM | TGI [1]: 12.8 µM | GI50 [2]: 9.34 µM | TGI [2]: 28.5 µM | GI50 [3]: 9.92 µM | TGI [3]: 50.4 µM | GI50 [4]: 2.63 µM | TGI [4]: 8.34 µM | GI50 [5]: 3.83 µM | TGI [5]: 42.2 µM | GI50 [6]: 7.14 µM | TGI [6]: > 100 µM | GI50 [7]: 4.13 µM | TGI [7]: 16.3 µM | GI50 [8]: 29.8 µM | TGI [8]: > 100 µM | GI50 [9]: 4.66 µM | TGI [9]: 38.3 µM | GI50 [10]: 3.44 µM | TGI [10]: > 100 µM | GI50 [11]: 4.49 µM | TGI [11]: 16.7 µM | GI50 [12]: 4.31 µM | TGI [12]: 56.8 µM | GI50 [13]: 2.49 µM | TGI [13]: 7.59 µM | GI50 [14]: 2.34 µM | TGI [14]: 7.86 µM | GI50 [15]: 5.92 µM | TGI [15]: 26.6 µM | GI50 [16]: 5.31 µM | TGI [16]: 22.4 µM | GI50 [17]: 2.93 µM | TGI [17]: 11.7 µM | GI50 [18]: 4.09 µM | TGI [18]: 27.6 µM | GI50 [19]: 4.62 µM | TGI [19]: 20 µM | GI50 [20]: 3.52 µM | TGI [20]: 23.1 µM | GI50 [21]: 2.54 µM | TGI [21]: 8.4 µM | GI50 [22]: 4.44 µM | TGI [22]: 45.7 µM | GI50 [23]: 3.94 µM | TGI [23]: 15.2 µM | GI50 [24]: 4.46 µM | TGI [24]: 18.8 µM | GI50 [25]: 3.73 µM | TGI [25]: 20.7 µM | GI50 [26]: 3.9 µM | TGI [26]: > 100 µM | GI50 [27]: 3.56 µM | TGI [27]: 30.9 µM | GI50 [28]: 4.38 µM | TGI [28]: > 100 µM | GI50 [29]: 2.55 µM | TGI [29]: 10.4 µM | GI50 [30]: 4.43 µM | TGI [30]: 51.1 µM | GI50 [31]: 3.74 µM | TGI [31]: 24.8 µM | GI50 [32]: 4.33 µM | TGI [32]: 33 µM | GI50 [33]: 4.61 µM | TGI [33]: 19 µM | GI50 [34]: 2.71 µM | TGI [34]: 9.84 µM | GI50 [35]: 6.19 µM | TGI [35]: > 100 µM | GI50 [36]: 4.61 µM | TGI [36]: 32.3 µM | GI50 [37]: 3.8 µM | TGI [37]: 56.5 µM | GI50 [38]: 4.9 µM | TGI [38]: > 100 µM | GI50 [39]: 5.01 µM | TGI [39]: > 100 µM | GI50 [40]: 4.2 µM | TGI [40]: 29.7 µM | GI50 [41]: 8.38 µM | TGI [41]: > 100 µM | GI50 [42]: 2.55 µM | TGI [42]: 9.78 µM | GI50 [43]: 3.99 µM | TGI [43]: > 100 µM | GI50 [44]: 5.88 µM | TGI [44]: 41.6 µM | GI50 [45]: 5.22 µM | TGI [45]: 33.8 µM | GI50 [46]: 4.07 µM | TGI [46]: 28.5 µM | GI50 [47]: 3.1 µM | TGI [47]: 12.2 µM | GI50 [48]: 20.4 µM | TGI [48]: > 100 µM | GI50 [49]: 2.97 µM | TGI [49]: 15.1 µM | GI50 [50]: 18.3 µM | TGI [50]: 36.2 µM | GI50 [51]: 2.27 µM | TGI [51]: 5.74 µM | GI50 [52]: 2.62 µM | TGI [52]: > 100 µM | GI50 [53]: 4.5 µM | TGI [53]: 27.9 µM | GI50 [54]: 4.08 µM | TGI [54]: 23.4 µM | GI50 [55]: 11.2 µM | TGI [55]: 44.9 µM | GI50 [56]: 3.93 µM | TGI [56]: 20.6 µM | GI50 [57]: 4.67 µM | TGI [57]: 34.7 µM | GI50 [58]: 3.94 µM | TGI [58]: 30 µM
